The subject of data set [1] is mice. As to conditions: cited from earlier work. From the text: This is particularly important given the current rise in the abuse of prescription opioids, commonly MOR agonists. The MOR is established to play a major role in analgesia, but also on the undesirable opioid side effect of reward, with deletion of the gene encoding MOR (Oprm1) completely blocking opioid analgesia and reward behavior in rodents. To this aim, we used the conditioned place preference (CPP) paradigm, as described previously. The CPP is a w ...

For data set [2], the system named is mice. Details: method as in PMID 30571123. The note with it: s.c.; cited from earlier work.
For data set [3] the following is noted: in vivo; cited from earlier work.
For data set [4], the system named is mice. The note with it: 15.5 µmol/kg s.c. chronic, day 1 to day 4; cited from earlier work.
Data set [5] addresses human mu-opioid receptor (MOR), stably expressed in CHO cells (CHO-hMOR), in membranes (human) (UniProt P35372).

We go through four compounds from PMC9780937 (Molecules, 2022).

Chain of human mu-opioid receptor (MOR), stably expressed in CHO cells (CHO-hMOR), in membranes (human) (P35372 whole entry): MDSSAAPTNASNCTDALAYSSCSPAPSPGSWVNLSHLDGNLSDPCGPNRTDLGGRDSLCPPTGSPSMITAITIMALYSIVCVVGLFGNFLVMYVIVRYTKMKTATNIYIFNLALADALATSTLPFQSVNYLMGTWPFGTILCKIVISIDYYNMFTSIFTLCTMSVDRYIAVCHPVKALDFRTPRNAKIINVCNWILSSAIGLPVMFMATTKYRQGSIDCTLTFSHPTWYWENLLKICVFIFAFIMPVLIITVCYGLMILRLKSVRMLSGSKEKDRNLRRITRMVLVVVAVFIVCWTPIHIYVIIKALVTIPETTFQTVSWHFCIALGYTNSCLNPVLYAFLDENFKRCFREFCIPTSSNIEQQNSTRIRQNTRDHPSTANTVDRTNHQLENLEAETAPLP

In the case of `CN1CC[C@]23c4c5ccc(O)c4O[C@H]2[C@@H](O)C=C[C@H]3[C@H]1C5` [morphine], the “Rewarding effect of morphine, CPP” value with mice [1] (15.5 µmol/kg daily, vs saline) is recorded as “significant place preference compared to the saline group”. Moreover, in the data set with mice [1] (mice), the “CPP with narcotic drugs” value is on record as “produce CPP”. In addition, in the data set on mice [2], the “ED50, writhing assay (mass)” value is 0.437 mg/kg and the “ED50, writhing assay (molar)” value is 1.36 µmol/kg. Moreover, the “Sedation and locomotor activity” value in data set [3] is “known to produce sedation and to reduce locomotor activity”. Further, the “Spontaneous locomotor activity of morphine” value in the data set with mice [4] is on record as “significant hyperlocomotion from day 1 to day 4”.

Regarding `COc1ccc2c3c1O[C@H]1C(=O)CC[C@@]4(O)[C@@H](C2)N(C)CC[C@]314` [oxycodone], in data set [3], the “Sedation and locomotor activity” value was “known to produce sedation and to reduce locomotor activity”.

In data set [5], “KGFF09 (H-Dmt-DArg-Aba-βAla-Bpa-Phe-NH2) (peptide)” returned a [35S]GTPγS binding (G protein activation), membranes from CHO-hMOR cells: EC50 of 8.28 nM and a [35S]GTPγS binding (G protein activation), membranes from CHO-hMOR cells: Emax (% of DAMGO) of 92%.

Take “[D-Ala2,N-Me-Phe4,Gly-ol5]enkephalin (DAMGO) (peptide)”: in data set [5], the [35S]GTPγS binding (G protein activation), membranes from CHO-hMOR cells: EC50 is 35 nM and the [35S]GTPγS binding (G protein activation), membranes from CHO-hMOR cells: Emax (%, the reference set to 100) came to 100%.
